Measurements taken from patent publication US20160158251A1, “COMPOSITION FOR PREVENTING OR TREATING MUSCULAR ATROPHY OR PROMOTING MUSCULAR REGENERATION IN SUBJECT COMPRISING SULFONAMIDE COMPOUND AND USE THEREOF” (Samsung Electronics Co., Ltd., priority 2014, published 2016).

Assays:
[1] = system: Human skeletal muscle satellite (HSkMS) cells; assay: Proliferation of human skeletal muscle satellite cells (cell count by hemocytometer, serum and growth factor starvation); type: cell-based; conditions: 24 hours, in comparison with serum starvation (FIG. 1)
Procedure: Human skeletal muscle satellite (HSkMS) cells were prepared to identify whether proliferation of skeletal muscle satellite cells is promoted by sulfonamide compounds.
The seeded HSkMS cells were cultured at 37° C. in a 5% CO2 incubator for 24 hours. Then, 0.1 μM, 1 μM, and 10 μM of each of sulfadiazine (Sigma-Aldrich), sulfamethoxazole (Sigma-Aldrich), sulfadoxine (Sigma-Aldrich), and sulfaguanidine (Sigma-Aldrich), as sulfonamide compounds, were added to the HSkMS cells, and the cells were incubated at 37° C. in a 5% CO2 incubator for 24 hours. After the incubation, the numbers of HSkMS cells were calculated using a hemocytometer.

Atrogin-1 = Atrogin-1 mRNA expression in differentiated C2C12 cells treated with dexamethasone (real time PCR); type: cell-based, mouse; conditions: sulfadiazine (1, 10 or 100 μM) 24 hours, then 2 μM dexamethasone 24 hours, vs. dexamethasone only (FIG. 2A)
Procedure: (§1) C2C12 cell lines (mouse gastrocnemius muscle, ATCC® CRL-1772™) were seeded in a 10% FBS/DMEM and incubated at 37° C. in a 5% CO2 incubator. When the cells were 70% confluent, the culture medium was replaced with 2% FBS/DMEM and the cells were cultured for 4 days to completely induce differentiation into muscle cells. C2C12 cell lines are mouse myoblast cell lines obtained by continuous culture of myoblast cells cultured from gastrocnemius muscle of C3H mice.
(§2) When C2C12 cells were completely differentiated into muscle cells, the culture medium was removed therefrom, and 4 ml of a fresh culture medium including 1 μM, 10 μM, or 100 μM of sulfadiazine (Sigma Aldrich) was added thereto, and then, the cells were cultured at 37° C. in a 5% CO2 incubator for 24 hours. […]
(§3) A Trizol reagent (Invitrogen) was added to the collected cells, and total RNA was separated therefrom according to manufacturer's protocols. […] Amounts of mRNA of Atrogin-1 and MuRF-1 were quantified using a real time PCR device (MyiQPCR instrument, BioRad) that is a device measuring SYBR Green. […]
(§4) Values obtained via amplification were normalized to GAPDH gene expression, and relative expression levels of mRNA of Atrogin-1 and MURF-1 were quantified. The quantified relative expression levels (arbitrary unit (AU)) of mRNA of Atrogin-1 and MURF-1 are illustrated in FIGS. 2A and 2B, respectively (*: p<0.05 vs. dexamethasone)

MuRF-1 = MuRF-1 mRNA expression in differentiated C2C12 cells treated with dexamethasone (real time PCR); type: cell-based, mouse; conditions: sulfadiazine (1, 10 or 100 μM) 24 hours, then 2 μM dexamethasone 24 hours, vs. dexamethasone only (FIG. 2B)
Procedure: as §1, §2, §3, §4

SMILES	proliferation of the HSkMS cells ([1]; 10 μM)	expression of mRNA of Atrogin-1 (Atrogin-1)	proliferation of the HSkMS cells ([1]; 1 μM)	expression of mRNA of MuRF1 (MuRF-1)
NC(N)=NS(=O)(=O)c1ccc(N)cc1 [sulfaguanidine]	promoted in all groups, in comparison with serum starvation, except for the groups			
Cc1cc(NS(=O)(=O)c2ccc(N)cc2)no1 [sulfamethoxazole]	promoted in all groups, in comparison with serum starvation, except for the groups			
Nc1ccc(S(=O)(=O)Nc2ncccn2)cc1 [sulfadiazine]	promoted in all groups, in comparison with serum starvation, except for the groups	decreased	promoted in all groups, in comparison with serum starvation, except for the groups	decreased
